Measured values reported in patent US20050250765A1, “Diazepinones as antiviral agents” (priority 2000, published 2005).

Test system: not listed separately
Assay: in vitro
Conditions: African green monkey, TC50

Row | Compound | CC50 at 2 day [µM]
1 | COc1ccc2sc3c(c2c1)NC(Cc1ccccc1)CNC3=O (centres unmarked) [PP2, 6-Benzyl-3-methoxy-5,6,7,8-tetrahydro-10-thia-5,8-diaza-benzo[a]azulen-9-one] | 1.1
2 | C=C(C)CN1CCNC(=O)c2sc3ccc([N+](=O)[O-])cc3c21 [Q, 5-(2-Methyl-allyl)-3-nitro-5,6,7,8-tetrahydro-10-thia-5,8-diaza-benz[a]azulen-9-one] | 6
3 | COc1ccc2sc3c(c2c1)N(Cc1ccccc1C)CCNC3=O [WW3, 3-Methoxy-5-(2-methyl-benzyl)-5,6,7,8-tetrahydro-10-thia-5,8-diaza-benzo[a]azulen-9-one] | 10.2
4 | COc1cccc(CN2CCNC(=O)c3sc4ccc(OC)cc4c32)c1 [C, 3-Methoxy-5-(3-methoxy-benzyl)-5,6,7,8-tetrahydro-10-thia-5,8-diaza-benzo[a]azulen-9-one] | 10
5 | C=CCN1CCNC(=O)c2sc3ccc([N+](=O)[O-])cc3c21 [U, 5-Allyl-3-nitro-5,6,7,8-tetrahydro-10-thia-5,8-diaza-benz[a]azulen-9-one] | 8.1
6 | C=C(C)CN1CCNC(=O)c2sc3ccc(F)cc3c21 [CC5, 3-Fluoro-5-(2-methyl-allyl)-5,6,7,8-tetrahydro-10-thia-5,8-diaza-benz[a]azulen-9-one] | 18.5
7 | CN1CCNC(=O)c2ccc3cnccc3c21 [GG4, 11-Methyl-8,9,10,11-tetrahydro-3,8,11-triaza-cyclohepta[a]naphthalen-7-one] | 11.5
8 | COc1ccc2sc3c(c2c1)N(Cc1ccc(C#N)cc1)CCN(C)C3=O [AA4, 4-(3-Methoxy-8-methyl-9-oxo-6,7,8,9-tetrahydro-10-thia-5,8-diaza-benzo[a]azulen-5-ylmethyl)-benzonitrile] | 100
9 | COc1cccc(CN2CCNC(=O)c3sc4ccc([N+](=O)[O-])cc4c32)c1 [V, 5-(3-Methoxy-benzyl)-3-nitro-5,6,7,8-tetrahydro-10-thia-5,8-diaza-benz[a]azulen-9-one] | 1.3
10 | O=C1NCCNc2c1ccc1cnccc21 [F, 8,9,10,11-Tetrahydro-3,8,11-triaza-cyclohepta[a]naphthalen-7-one] | 1.7
11 | COc1ccc2sc3c(c2c1)N(Cc1ccc([N+](=O)[O-])cc1)CCNC3=O [SS3, 3-Methoxy-5-(4-nitro-benzyl)-5,6,7,8-tetrahydro-10-thia-5,8-diaza-benzo[a]azulen-9-one] | 83
12 | CCCCN1CCNC(=O)c2sc3ccc([N+](=O)[O-])cc3c21 [DD, 5-n-Butyl-3-nitro-5,6,7,8-tetrahydro-10-thia-5,8-diaza-benz[a]azulen-9-one] | 12.9
13 | COc1ccc2oc3c(c2c1)N(CCC(C)C)CCNC3=O [YY5, 3-Methoxy-5-(3-methyl-butyl)-5,6,7,8-tetrahydro-10-oxa-5,8-diaza-benzo[a]azulen-9-one] | 10
14 | C=C(Cl)CN1CCNC(=O)c2sc3ccc(OC)cc3c21 [MM3, 5-(2-Chloro-allyl)-3-methoxy-5,6,7,8-tetrahydro-10-thia-5,8-diaza-benzo[a]azulen-9-one] | 3
15 | CCCN1CC(C)(C)NC(=O)c2sc3ccc(OC)cc3c21 [TT, 3-Methoxy-7,7-dimethyl-5-propyl-5,6,7,8-tetrahydro-10-thia-5,8-diaza-benzo[a]azulen-9-one] | 0.4
16 | COc1ccc2sc3c(c2c1)NCCNC3=O [B, 3-Methoxy-5,6,7,8-tetrahydro-10-thia-5,8-diaza-benzo[a]azulen-9-one] | 4.5
17 | CCCN1CCNC(=O)c2sc3ccc(OCC)cc3c21 [D, 3-Ethoxy-5-propyl-5,6,7,8-tetrahydro-10-thia-5,8-diaza-benzo[a]azulen-9-one] | 100

Test system: Vero cells
Assay: not given
Conditions: read-out: TC50; 2-day XTT, no virus

Row | Compound | CC50 [µM]
18 | 5-(3-Methoxy-benzyl)-3-nitro-5,6,7,8-tetrahydro-10-thia-5,8-diaza-benz[a]azulen-9-one [W] | 100

Test system: Vero cells
Assay: not given
Conditions: African green monkey, 2 day

Row | Compound | CC50 [µM]
19 | COc1cccc(CN2CC(C)NC(=O)c3sc4ccc(OC)cc4c32)c1 (centres unmarked) [EE2, 3-Methoxy-5-(3-methoxy-benzyl)-7-methyl-5,6,7,8-tetrahydro-10-thia-5,8-diaza-benzo[a]azulen-9-one] | 3.4
20 | COc1cccc(CN2CC(C)NC(=O)c3sc4ccc(OC)cc4c32)c1 (centres unmarked) [O, 3-Methoxy-5-(3-methoxy-benzyl)-7-methyl-5,6,7,8-tetrahydro-10-thia-5,8-diaza-benzo[a]azulen-9-one] | 18

Test system: not listed separately
Assay: Metabolic stability, in vitro half-life in human liver microsomes
Assay type: in vitro ADME
Conditions: liver microsomes (pooled), 30 μM compound, 0.5 mg/mL pooled microsomal protein, 1.0 mM NADPH, 37° C., pH 7.4, read-out: t½ (min) Human Liver Microsome Preparation
Description: Compounds were individually incubated (30 μM, dissolved in DMSO) with human and mouse liver microsomes. The incubation consisted of 50 mM KPO4, pH 7.4 buffer with 0.5 mg/mL pooled microsomal protein, 30 μM compound, and 1.0 mM NADPH. The total incubate volume was 0.5 mL. The incubate solution was pro-incubated for 3 minutes at 37° C. and the reaction initiated by the addition of NADPH. At 0, 10, 20, and 40 minutes 50 μL aliquots were removed and quenched with 100 μL acetonitrile and 25 μL of internal standard. Standard curves of each compound were prepared in a simialr manner at a concentration range of 7.5 μM to 45 μM. Th in vitro metabolic half-life determinations of these preparations were determined from the concentration vs. time plots using WinNonlin software. The in vitro half-life data represents the extent of oxidative and hydrolytic metabolism.

Row | Compound | half-life at 30 μM [min]
21 | COc1ccc(CN2CC(C)(C)NC(=O)c3sc4ccc(OC)cc4c32)cc1 [K, 3-Methoxy-5-(4-methoxy-benzyl)-7,7-dimethyl-5,6,7,8-tetrahydro-10-thia-5,8-diaza-benzo[a]azulen-9-one] | 150
22 | O=C1NCCNc2c1ccc1cnccc21 [F, 8,9,10,11-Tetrahydro-3,8,11-triaza-cyclohepta[a]naphthalen-7-one] | > 200
23 | CCN1CCNC(=O)c2oc3ccc(OC)cc3c21 [H, 5-Ethyl-3-methoxy-5,6,7,8-tetrahydro-10-oxa-5,8-diaza-benzo[a]azulen-9-one] | 200
24 | COc1ccc2sc3c(c2c1)NCCNC3=O [B, 3-Methoxy-5,6,7,8-tetrahydro-10-thia-5,8-diaza-benzo[a]azulen-9-one] | 66
25 | CCOc1ccc2sc3c(c2c1)NCC(C)(C)NC3=O [NN, 3-Ethoxy-7,7-dimethyl-5,6,7,8-tetrahydro-10-thia-5,8-diaza-benzo[a]azulen-9-one] | 133
26 | COc1cccc(CN2CCNC(=O)c3ccc4cnccc4c32)c1 [FF4, 11-(3-Methoxy-benzyl)-8,9,10,11-tetrahydro-3,8,11-triaza-cyclohepta[a]naphthalen-7-one] | > 200
